Test results published in publication PMC5851678, “Phosphorylation decelerates conformational dynamics in bacterial translation elongation factors” (Science Advances, 2018).
Read-outs that look alike come from different tables or passages of the source.

What was measured:
Assay in all cases: ITC
EF-Tu [1] = molecular target: T1, EF-Tu; format: binding, Escherichia coli; conditions: 20 °C, 50 mM Hepes pH 7.4, 40 mM NH4Cl, 2 mM MgCl2, 1 mM TCEP, nucleotide-free protein; read-out: affinity
T1 construct: gene tufA; full-length, His-tagged (pET-His-EF-Tu), expressed in E. coli BL21(DE3), nucleotide-free, unphosphorylated

pEF-TuT382 [2] = molecular target: T2, pEF-TuT382; format: binding, Escherichia coli; conditions: 50 mM Hepes pH 7.4, 40 mM NH4Cl, 2 mM MgCl2, 1 mM TCEP, nucleotide-free protein, phosphorylated at T382
T2 construct: gene tufA; full-length His-tagged EF-Tu phosphorylated at T382 in vitro by toxin Doc with ATP, repurified by SEC

EF-Tu [3] = molecular target: T1, EF-Tu; design: species or system Escherichia coli; conditions: 50 mM Hepes pH 7.4, 40 mM NH4Cl, 2 mM MgCl2, 1 mM TCEP
Text: ITC on EF-Tu | consistent with the affinities measured with GDPNP

pEF-TuT382 [4] = molecular target: T2, pEF-TuT382; design: species or system Escherichia coli; conditions: 50 mM Hepes pH 7.4, 40 mM NH4Cl, 2 mM MgCl2, 1 mM TCEP; phosphorylated at T382

`Nc1nc2c(ncn2[C@@H]2O[C@H](COP(=O)(O)OP(=O)(O)OP(O)(O)=S)[C@@H](O)[C@H]2O)c(=O)[nH]1` [GTPγS, guanosine-5′-(γ-thio)-triphosphate] was tested, and the Kd (EF-Tu [1]) was 81 nM and the Kd (pEF-TuT382 [2]; read-out: Kd) was 90 nM.
In the case of `Nc1nc2c(ncn2[C@@H]2O[C@H](COP(=O)(O)OP(=O)(O)O)[C@@H](O)[C@H]2O)c(=O)[nH]1` [GDP], the Kd (EF-Tu [1]) is reported as 4.5 nM and the Kd (pEF-TuT382 [2]; read-out: affinity) is reported as 5.7 nM.
In the case of `Nc1nc2c(ncn2[C@@H]2O[C@H](COP(=O)(O)OP(=O)(O)NP(=O)(O)O)[C@@H](O)[C@H]2O)c(=O)[nH]1` [GDPNP, 5′-guanylyl imidodiphosphate], the Kd (EF-Tu [3]) is reported as 128 ± 8 nM and the Kd (pEF-TuT382 [4]) is reported as 320 ± 1 nM.
